Source: patent publication US5607850A, “Enzyme from microbial source: phthalyl amidase” (Eli Lilly and Company, priority 1995, dated 1997)
Read-outs that look alike come from different tables or passages of the source. Each block holds one compound with its values, some of them ahead of it.

How the values were obtained:
phthalyl amidase [1] = target: T1, phthalyl amidase (Xanthobacter agilis, UniProt P0C2Y0); assay: Chiral and additional substrate selectivity of phthalyl amidase (Table 13); assay type: biochemical; settings: 30° C.; for Relative Activity: Table 13
Protocol: Several additional substrates were tested in a total volume of 1 ml. […] Reactions were stopped by the addition of methanol, and phthalic acid formation was monitored by HPLC.

phthalyl amidase [2] = target: T1, phthalyl amidase; assay: Influence of effectors and organic solvents on phthalyl amidase activity; assay type: biochemical
Protocol: A typical reaction mixture consisted of 1 ml total volume and contained 0.1 mM III, 0.1 μM phthalyl amidase in 50 mM potassium phosphate buffer (pH 5.5-9.0) at 32° C. for 20 minutes. The reactions were stopped by the addition of 1 ml methanol. After removal of precipitate by centrifugation, an aliquot of the supernatant fraction (typically 30 μl) was monitored for the beta-lactam nucleus and phthalic acid by HPLC using a Zorbax C8 column (0.46×15 cm; MacMod Analytical Inc., Chadds Ford, Pa.). The two reaction products were eluted by a mobile phase constructed as continuous mixed gradients from (a) 1% ACN (acetonitrile)/0.2% TFA (trifluoroacetic acid) and (b) 80% ACN/0.2% TFA as follows: 1) 0% (b), 3min; 2) 0-50% (b), 0.5 min; 3) 50-100% (b), 3 min; 4) 100% (b), 2.5 min; 5) 100-1% (b), 0.1 min; and 6) 0% (b), 5 min.
The effect of various agents on the enzymatic activity of phthalyl amidase was determined using standard conditions (see Example 5). All agents were tested at 1 mM final concentration unless otherwise indicated.

[3] = Stability of phthalyl amidase: effect of ionic strength and pH; assay type: physicochemical; settings: 200 mM salt added to 20 mM buffer
Protocol: The stability of phthalyl amidase at pH values ranging from 6-9 was determined as described in Example 5 at 30° C. in both 20 and 200 mM potassium phosphate buffer. […] In 200 mM buffer, the enzyme retained at least 80% of its activity for 100 hours irrespective of the pH of the incubating medium.

phthalyl amidase [4] = target: T1, phthalyl amidase; assay: Preparative scale enzymatic hydrolysis to carbacephem nucleus; assay type: biochemical; settings: 510 minutes, 30° C., pH 8.0, 80 units enzyme
Protocol: Thus, either compound XXXIII or III can be used to prepare the carbacephem nucleus (XXXIV). Substrate (5 grams) was added to 20 ml of deionized water and the pH of the solution was adjusted to 8.0 with concentrated ammonium hydroxide. Phthalyl amidase, 80 units as determined using the chromogenic substrate (II), was added to start the reaction. Temperature was maintained at 30° C. and the pH maintained at 8.0 by adding 2 N ammonium hydroxide. […] The pH of the reaction was lowered to 5.0 thereby precipitating the carbacephem nucleus. Isolated yields of the nucleus were between 65% and 77%. [drawing 26]

phthalyl amidase [5] = target: T1, phthalyl amidase; assay: Substrate specificity of phthalyl amidase (Tables 9-11); assay type: biochemical; settings: Table 9, beta-lactams; 30° C., pH 8.0
Protocol: the activity of phthalyl amidase against 25 compounds was determined. The compounds were divided into beta-lactams (Table 9), phthalyl amides (Table 10), and aromatic ring substituted amides (Table 11). Each reaction mixture (1 ml total volume) contained 2.5 μmol of compound and 0.3 units of enzyme (based on the chromogenic substrate) of the preparative scale purified enzyme, in 50 mM phosphate buffer, pH 8.0. The reactions were conducted at 30° C. Samples of the reaction mixture were taken at various times, and methanol (equal value) was added to stop the reaction. The samples were examined by HPLC to determine the extent of substrate hydrolysis. The amount of compound hydrolyzed was calculated from a standard curve of the test compound. All substrates were stable in buffer at 30° C. and pH 8.0 in the absence of enzyme for 24 hours.

phthalyl amidase [6] = target: T1, phthalyl amidase; assay: Kinetic parameters for phthalyl amidase; assay type: biochemical; settings: Table 12; 32° C., pH 8.2
Protocol: The kinetic parameters of the enzyme were determined for several representative substrates. Compounds II, XVII, and XVIII were tested using 0.9 μg/ml of enzyme. Compounds III and XI were tested using 5.14 μg/ml of enzyme. Substrate concentrations were between 0 and 25 mM and reaction time was between 2 and 20 minutes, depending on the substrate used. All reactions were run at 32° C. and at pH 8.2. Km is the Michaelis constant for enzyme kinetics, Vmax is the maximal rate of reaction calculated by the Michaelis-Menten equation, and Kcat is the catalytic constant for an enzyme reaction.

T1 sequence (P0C2Y0 2-453): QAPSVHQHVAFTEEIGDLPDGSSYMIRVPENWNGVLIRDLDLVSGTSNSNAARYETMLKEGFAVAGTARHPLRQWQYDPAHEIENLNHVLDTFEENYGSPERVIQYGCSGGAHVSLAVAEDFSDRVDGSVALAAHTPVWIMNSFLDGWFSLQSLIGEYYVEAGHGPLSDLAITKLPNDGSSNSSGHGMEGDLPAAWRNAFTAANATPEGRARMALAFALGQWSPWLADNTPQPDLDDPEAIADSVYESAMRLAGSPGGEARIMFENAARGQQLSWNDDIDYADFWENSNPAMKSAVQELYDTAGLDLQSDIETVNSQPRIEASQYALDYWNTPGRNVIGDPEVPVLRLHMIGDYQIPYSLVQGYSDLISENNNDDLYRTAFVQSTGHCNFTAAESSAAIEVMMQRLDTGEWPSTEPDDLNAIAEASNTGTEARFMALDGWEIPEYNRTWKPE

Structure (SMILES): [Cl-].[Na+] [NaCl, reference compound]
% of Control Activity (phthalyl amidase [2]): 104%
protection of enzyme against activity loss [3]: protected against activity loss

Structure (SMILES): O=C(O)C1=C(Cl)CCC2C(NC(=O)c3ccccc3C(=O)O)C(=O)N12 (centres unmarked) [III, 7-phthalamido-3-chloro-4-carboxy-1-carba-dethioceph-3-em]
hydrolyzed (phthalyl amidase [4]): 90.0%
Relative Activity (phthalyl amidase [1]; 2 minutes): 100
Relative Activity (phthalyl amidase [5]): 100
Km (phthalyl amidase [6]): 900 µM
Vmax (phthalyl amidase [6]): 7.6 μmol/sec/μmol

Structure (SMILES): [Cl-].[K+] [KCl, reference compound]
% of Control Activity (phthalyl amidase [2]; 1 mM agent): 100%
protection of enzyme against activity loss [3]: protected against activity loss

Structure (SMILES): O=C(O)C1=C(Cl)CCC2C(N3C(=O)c4ccccc4C3=O)C(=O)N12 (centres unmarked) [XXXIII, Phthalimido carbacephem]
hydrolyzed (phthalyl amidase [4]): 98%

The remaining lines, values ahead:

substrate preference (phthalyl amidase [1]): poor substrates for the enzyme
substrate preference (phthalyl amidase [1]; listed as L isomer): extremely poor substrate
Relative Activity (phthalyl amidase [1]; run for a longer time period): 1.3
Structure (SMILES): O=C(O)c1ccccc1C(=O)N[C@H](C(=O)O)c1ccccc1 [Compound XXX, N-phthalyl-phenylglycine]

substrate preference (phthalyl amidase [1]): twice that of compound III
Relative Activity (phthalyl amidase [1]; 2 minutes): 200
Structure (SMILES): O=C(O)c1ccccc1C(=O)Nc1ccccc1 [Compound XXXI]

substrate preference (phthalyl amidase [1]): poor substrates for the enzyme
Relative Activity (phthalyl amidase [1]; run for a longer time period): 0.0
Structure (SMILES): O=C(Nc1ccccc1)c1ccccc1S(=O)(=O)O [XXXII]
